# Data from US9796733B2, “Imidazo-pyrazine derivatives useful as soluble guanylate cyclase activators” (Merck Sharp & Dohme Corp., priority 2014, dated 2017).
# Assays:
# [1] = target: T1, sGC α1/β1 heterodimer (Homo sapiens, UniProt Q02108+Q02153); assay: Cell-based sGC functional assay (CASA assay): cGMP generation in CHO-K1/sGC cells, HTRF detection; conditions: for Emax: CHO-K1, percent activation relative to standard Compound A in CHO-K1/sGC cells, read-out: % Act.; for EC50: inflection point (IP) of cGMP generation in CHO-K1/sGC cells, 4P fit, activity expressed as percentage of Compound A
# T1 construct: expressed in transfected cells; host or cells: CHO-K1 (clone #7, CHO-K1/sGC)
# T1 sequence (Q02108 1-690): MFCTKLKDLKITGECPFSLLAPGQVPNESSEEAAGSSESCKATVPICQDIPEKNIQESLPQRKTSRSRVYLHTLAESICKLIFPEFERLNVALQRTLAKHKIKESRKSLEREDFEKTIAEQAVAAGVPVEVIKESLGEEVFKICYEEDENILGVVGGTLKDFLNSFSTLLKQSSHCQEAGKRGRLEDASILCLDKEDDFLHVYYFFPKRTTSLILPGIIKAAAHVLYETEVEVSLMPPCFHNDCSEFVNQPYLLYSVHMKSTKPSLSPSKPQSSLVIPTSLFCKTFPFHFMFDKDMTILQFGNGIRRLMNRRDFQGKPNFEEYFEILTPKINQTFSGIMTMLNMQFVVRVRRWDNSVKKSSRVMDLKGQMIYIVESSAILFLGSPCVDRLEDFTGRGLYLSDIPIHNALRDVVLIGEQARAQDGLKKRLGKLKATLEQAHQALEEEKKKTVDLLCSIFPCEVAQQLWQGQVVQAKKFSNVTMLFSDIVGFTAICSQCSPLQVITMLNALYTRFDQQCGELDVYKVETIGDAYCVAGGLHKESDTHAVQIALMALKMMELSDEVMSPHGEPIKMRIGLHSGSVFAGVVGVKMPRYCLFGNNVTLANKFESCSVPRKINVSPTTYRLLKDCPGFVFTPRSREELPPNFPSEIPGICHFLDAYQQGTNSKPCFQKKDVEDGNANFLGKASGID
# T1 sequence (Q02153 1-619): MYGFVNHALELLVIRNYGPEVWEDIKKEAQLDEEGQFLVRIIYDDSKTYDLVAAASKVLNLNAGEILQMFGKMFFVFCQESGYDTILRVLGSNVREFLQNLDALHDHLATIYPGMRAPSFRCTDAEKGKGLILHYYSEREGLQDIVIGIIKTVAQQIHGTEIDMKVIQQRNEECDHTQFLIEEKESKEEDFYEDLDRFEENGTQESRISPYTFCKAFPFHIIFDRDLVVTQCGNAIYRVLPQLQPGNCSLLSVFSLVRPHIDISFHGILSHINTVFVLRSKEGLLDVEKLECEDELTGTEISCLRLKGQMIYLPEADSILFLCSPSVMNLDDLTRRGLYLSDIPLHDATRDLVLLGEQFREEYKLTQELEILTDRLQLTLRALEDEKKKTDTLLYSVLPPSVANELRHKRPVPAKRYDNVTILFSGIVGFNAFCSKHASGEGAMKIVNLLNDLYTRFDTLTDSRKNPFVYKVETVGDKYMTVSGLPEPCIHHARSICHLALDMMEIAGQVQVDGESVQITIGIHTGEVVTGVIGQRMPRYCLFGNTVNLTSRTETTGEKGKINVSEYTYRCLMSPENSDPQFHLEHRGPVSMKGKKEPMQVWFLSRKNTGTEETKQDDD
# Procedure, shortened: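 cGMP was quantified by HTRF after 1 hr, 37° C exposure of thawed CHO-K1 cells expressing sGC α1/β1 to compound, with or without 1 μM DETA-NO. IBMX (0.5 mM) blocked cGMP breakdown, and DMSO was 2.5% final. Percent of standard Compound A's maximal cGMP was fitted (4P) for inflection point.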
# [2] = test system: Spontaneously hypertensive rats (SHR); assay: Acute efficacy in spontaneously hypertensive rats (SHR): telemetry blood pressure lowering after a single oral dose; format: in vivo, rat
# Procedure, shortened: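 Values are the maximum peak fall in systolic pressure after one oral dose (mpk), computed hourly against baseline from a vehicle dose given the day before. Rats were conscious, male, spontaneously hypertensive, with femoral-aortic telemetry recording 30 s every 10 min, 14 days post-surgery.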
SMILES,Emax [1],EC50 [1],% Act. ([1]; percent activation relative to standard Compound A in CHO-K1/sGC cells),"Maximum peak decrease of systolic blood pressure (SBP) in SHR, Cat. ([2]; P.O. 1.0 mpk)","Maximum peak decrease of systolic blood pressure (SBP) in SHR, Cat. ([2]; P.O. 0.3 mpk)","Maximum peak decrease of systolic blood pressure (SBP) in SHR, Cat. ([2]; P.O. 3.0 mpk)"
"Nc1nc(-c2cn3ccnc3c(CCCC(F)(F)F)n2)nc2c1C(c1ccc(F)cn1)(C1CC1)C(=O)N2 (stereo not drawn) [Example 217A, 4-amino-5-cyclopropyl-5-(5-fluoropyridin-2-yl)-2-(8-(4,4,4-trifluorobutyl)imidazo[1,2-a]pyrazin-6-yl)-5H-pyrrolo[2,3-d]pyrimidin-6(7H)-one]",82%,288 nM,–,C (Category C=SBP in SHRs>40 mmHg),–,–
"CC1(c2ccc(Cl)c(F)c2)C(=O)Nc2nc(-c3cn4ccnc4c(CCC(F)(F)F)n3)nc(N)c21 (stereo not drawn) [Example 178B, 4-amino-5-(4-chloro-3-fluorophenyl)-5-methyl-2-(8-(3,3,3-trifluoropropyl)imidazo[1,2-a]pyrazin-6-yl)-5H-pyrrolo[2,3-d]pyrimidin-6(7H)-one]",106%,17 nM,–,–,B (Category B=SBP in SHRs 20-40 mmHg),–
"CC1(c2nnc(C3CC3)s2)C(=O)Nc2nc(-c3cn4ccnc4c(Cc4ccc(F)cc4)n3)nc(N)c21 (stereo not drawn) [Example 32A, 4-amino-5-(5-cyclopropyl-1,3,4-thiadiazol-2-yl)-2-(8-(4-fluorobenzyl)imidazo[1,2-a]pyrazin-6-yl)-5-methyl-5H-pyrrolo[2,3-d]pyrimidin-6(7H)-one]",137%,58 nM,–,B (Category B=SBP in SHRs 20-40 mmHg),–,–
"CC1(c2ccc(F)cc2)C(=O)Nc2nc(-c3cn4ccnc4c(CCCC(F)(F)F)n3)nc(N)c21 (stereo not drawn) [Example 211A, 4-amino-5-(4-fluorophenyl)-5-methyl-2-(8-(4,4,4-trifluorobutyl)imidazo[1,2-a]pyrazin-6-yl)-5H-pyrrolo[2,3-d]pyrimidin-6(7H)-one]",122%,75 nM,–,–,A (Category A=SBP in SHRs<20 mmHg),–
"Nc1nc(-c2cn3ccnc3c(CCCC(F)(F)F)n2)nc2c1C(c1ccc(F)cc1)(C1CC1)C(=O)N2 (stereo not drawn) [Example 205B, 4-amino-5-cyclopropyl-5-(4-fluorophenyl)-2-(8-(4,4,4-trifluorobutyl)imidazo[1,2-a]pyrazin-6-yl)-5H-pyrrolo[2,3-d]pyrimidin-6(7H)-one]",127%,20 nM,–,–,C (Category C=SBP in SHRs>40 mmHg),–
"CCOc1ccc(C2(C)C(=O)Nc3nc(-c4cn5ccnc5c(CCCC(F)(F)F)n4)nc(N)c32)nc1 (stereo not drawn) [Example 216A, 4-amino-5-(5-ethoxypyridin-2-yl)-5-methyl-2-(8-(4,4,4-trifluorobutyl)imidazo[1,2-a]pyrazin-6-yl)-5H-pyrrolo[2,3-d]pyrimidin-6(7H)-one]",77%,146 nM,–,B (Category B=SBP in SHRs 20-40 mmHg),–,–
"CC1(c2ccc(F)cn2)C(=O)Nc2nc(-c3cn4ccnc4c(Cc4ccc(F)cc4)n3)nc(N)c21 (stereo not drawn) [Example 69B, 4-Amino-2-(8-(4-fluorobenzyl)imidazo[1,2-a]pyrazin-6-yl)-5-(5-fluoropyridin-2-yl)-5-methyl-5H-pyrrolo[2,3-d]pyrimidin-6(7H)-one]",116%,9 nM,–,–,C (Category C=SBP in SHRs>40 mmHg),–
"CC1(c2ccc(F)cc2F)C(=O)Nc2nc(-c3cn4ccnc4cn3)nc(N)c21 (stereo not drawn) [Example 139A, 4-amino-5-(2,4-difluorophenyl)-2-(imidazo[1,2-a]pyrazin-6-yl)-5-methyl-5H-pyrrolo[2,3-d]pyrimidin-6(7H)-one]",118%,222 nM,–,–,–,C (Category C=SBP in SHRs>40 mmHg)
"Nc1nc(-c2cn3ccnc3c(Cc3cccc(F)c3)n2)nc2c1C(C(=O)NC1CC1)(C1CC1)C(=O)N2 (single isomer, unassigned) [Example 38B, 4-amino-N,5-dicyclopropyl-2-(8-(3-fluorobenzyl)imidazo[1,2-a]pyrazin-6-yl)-6-oxo-6,7-dihydro-5H-pyrrolo[2,3-d]pyrimidine-5-carboxamide]",–,7 nM,103%,–,B (Category B=SBP in SHRs 20-40 mmHg),–

# Further lines, with some results ahead:
Emax [1],EC50 [1],% Act. ([1]; percent activation relative to standard Compound A in CHO-K1/sGC cells),SMILES,"Maximum peak decrease of systolic blood pressure (SBP) in SHR, Cat. ([2]; P.O. 1.0 mpk)","Maximum peak decrease of systolic blood pressure (SBP) in SHR, Cat. ([2]; P.O. 0.3 mpk)","Maximum peak decrease of systolic blood pressure (SBP) in SHR, Cat. ([2]; P.O. 3.0 mpk)"
83%,51 nM,–,"CC1(c2ccc(C3CC3)nn2)C(=O)Nc2nc(-c3cn4ccnc4c(CCC(F)(F)C(F)(F)F)n3)nc(N)c21 (stereo not drawn) [Example 253B, 4-amino-5-(6-cyclopropylpyridazin-3-yl)-5-methyl-2-(8-(3,3,4,4,4-pentafluorobutyl)imidazo [1,2-a]pyrazin-6-yl)-5H-pyrrolo[2,3-d]pyrimidin-6(7H)-one]",A (Category A=SBP in SHRs<20 mmHg),–,–
107%,496 nM,–,"Cc1ccc(C2(C)C(=O)Nc3nc(-c4cn5ccnc5c(CCC(F)(F)C(F)(F)F)n4)nc(N)c32)cn1 (stereo not drawn) [Example 221A, 4-amino-5-methyl-5-(6-methylpyridin-3-yl)-2-(8-(3,3,4,4,4-pentafluorobutyl)imidazo [1,2-a]pyrazin-6-yl)-5H-pyrrolo[2,3-d]pyrimidin-6(7H)-one]",A (Category A=SBP in SHRs<20 mmHg),–,–
137%,170 nM,–,"Nc1nc(-c2cn3ccnc3c(CCCC(F)(F)F)n2)nc2c1C(c1cc(C(F)(F)F)ccn1)(C1CC1)C(=O)N2 (single isomer, unassigned) [Example 354B, 4-amino-5-cyclopropyl-2-(8-(4,4,4-trifluorobutyl)imidazo[1,2-a]pyrazin-6-yl)-5-(4-(trifluoromethyl)pyridin-2-yl)-5H-pyrrolo[2,3-d]pyrimidin-6(7H)-one]",A (Category A=SBP in SHRs<20 mmHg),–,–
137%,98 nM,–,"Nc1nc(-c2cn3ccnc3c(CCCC(F)(F)F)n2)nc2c1C(c1ccccn1)(C1CC1)C(=O)N2 (stereo not drawn) [Example 383B, 4-Amino-5-cyclopropyl-5-(pyridin-2-yl)-2-(8-(4,4,4-trifluorobutyl)imidazo[1,2-a]pyrazin-6-yl)-5H-pyrrolo[2,3-d]pyrimidin-6(7H)-one]",B (Category B=SBP in SHRs 20-40 mmHg),–,–
85%,100 nM,–,"CC(C)c1ccc(C2(C)C(=O)Nc3nc(-c4cn5ccnc5c(CCC(F)(F)C(F)(F)F)n4)nc(N)c32)cn1 (stereo not drawn) [Example 251B, 4-amino-5-(6-isopropylpyridin-3-yl)-5-methyl-2-(8-(3,3,4,4,4-pentafluorobutyl)imidazo [1,2-a]pyrazin-6-yl)-5H-pyrrolo[2,3-d]pyrimidin-6(7H)-one]",–,–,B (Category B=SBP in SHRs 20-40 mmHg)
156%,50 nM,–,"CC1(c2cccc(F)c2)C(=O)Nc2nc(-c3cn4ccnc4c(CCC(F)(F)C(F)(F)F)n3)nc(N)c21 (stereo not drawn) [Example 231A, 4-amino-5-(3-fluorophenyl)-5-methyl-2-(8-(3,3,4,4,4-pentafluorobutyl)imidazo [1,2-a]pyrazin-6-yl)-5H-pyrrolo[2,3-d]pyrimidin-6(7H)-one]",–,A (Category A=SBP in SHRs<20 mmHg),–
187%,239 nM,–,"CCCCc1nc(-c2nc(N)c3c(n2)NC(=O)C3(c2ncc(Cl)cn2)C2CC2)cn2ccnc12 (stereo not drawn) [Example 372A, 4-amino-2-(8-butylimidazo[1,2-a]pyrazin-6-yl)-5-(5-chloropyrimidin-2-yl)-5-cyclopropyl-5H-pyrrolo[2,3-d]pyrimidin-6(7H)-one]",C (Category C=SBP in SHRs>40 mmHg),–,–
